Our source for the Binding % values is patent publication US10646488B2 (Araxes Pharma LLC, priority 2016, dated 2020).

Structures are written as SMILES.

For one assay, the target named is T1, KRAS G12C 1-169, his-tagged protein, GDP-loaded (Homo sapiens, UniProt P01116, G12C).
T1 construct: KRAS G12C 1-169, his-tagged protein, GDP-loaded
Description: Covalent binding (% modification) to KRAS G12C by mass spectrometry. Note: test concentration or dose not given here. The conditions noted are these: covalent binding to KRAS G12C after a ten minute incubation period.
Take `C=CC(=O)N1C[C@H](C)N(c2nc(OCCN(CC)CC)nc3c(F)c(-c4c(O)cccc4F)c(Cl)cc23)C[C@H]1C` [Compound 48, 1-((2R,5S)-4-(6-chloro-2-(2-(diethylamino)ethoxy)-8-fluoro-7-(2-fluoro-6-hydroxyphenyl)quinazolin-4-yl)-2,5-dimethyl-piperazin-1-yl) prop-2-en-1-one]: the Binding % result is on record as “++ (++ indicates binding activity from 50 to 90%)”.
Regarding `C=CC(=O)N1[C@H](C)CN(c2nc(OCCN3CC(F)(F)C3)nc3c(F)c(-c4c(C)ccc5cn[nH]c45)c(Cl)cc23)C[C@@H]1C` [Compound 30, 1-((2R,6S)-4-(6-chloro-2-(2-(3,3-difluoroazetidin-1-yl)ethoxy)-8-fluoro-7-(6-methyl-1H-indazol-7-yl)quinazolin-4-yl)-2,6-dimethyl-piperazin-1-yl) prop-2-en-1-one], the Binding % result is “++ (++ indicates binding activity from 50 to 90%)”.
For the compound `C=CC(=O)N1CCN(c2nc(OCCN3CC(F)(F)C3)nc3c(F)c(-c4c(O)cccc4F)c(Cl)cc23)C[C@H]1C` [Compound 57, 1-((2R)-4-(6-chloro-2-(2-(3,3-difluoroazetidin-1-yl)ethoxy)-8-fluoro-7-(2-fluoro-6-hydroxyphenyl)quinazolin-4-yl)-2-methyl-piperazin-1-yl) prop-2-en-1-one], the Binding % result was “+++ (+++ indicates binding activity greater than 90%)”.
As for `C=CC(=O)N1CCN(c2nc(OCCN3CC(F)(F)C3)nc3c(F)c(-c4c(O)cccc4F)c(Cl)cc23)C[C@H]1C` (atropisomer, axis not shown) [Compound 63, 1-((R)-4-((S)-6-chloro-2-(2-(3,3-difluoroazetidin-1-yl)ethoxy)-8-fluoro-7-(2-fluoro-6-hydroxyphenyl)quinazolin-4-yl)-2-methyl-piperazin-1-yl) prop-2-en-1-one], the Binding % result is reported as “+++ (+++ indicates binding activity greater than 90%)”.
As to `C=CC(=O)N1C[C@@H](C)N(c2nc(N)nc3c(F)c(-c4c(C)ccc5cn[nH]c45)c(Cl)cc23)[C@@H](C)C1` [Compound 31, 1-((3S,5R)-4-(2-amino-6-chloro-8-fluoro-7-(6-methyl-1H-indazol-7-yl)quinazolin-4-yl)-3,5-dimethyl-piperazin-1-yl) prop-2-en-1-one], the Binding % result is “++ (++ indicates binding activity from 50 to 90%)”.

The assay is the same for the next values; noted with them: covalent binding to KRAS G12C after a three minute incubation period.
On to `C[C@@H]1CN(c2nc(N3CC(N(C)C)C3)nc3c(F)c(-c4c(O)cccc4F)c(Cl)cc23)[C@@H](C)CN1C(=O)/C(C#N)=C/c1ccccn1` [Compound 111, (E)-2-((2R,5S)-4-(6-chloro-2-(3-(dimethylamino)azetidin-1-yl)-8-fluoro-7-(2-fluoro-6-hydroxyphenyl)quinazolin-4-yl)-2,5-dimethyl-piperazine-1-carbonyl)-3-(pyridin-2-yl) acrylonitrile], for which the Binding % entry is “+ (+ indicates binding activity greater than 0% and up to 50%)”.
On the same count and under the same terms, next, `C=CC(=O)N1C[C@H](C)N(c2nc(N3CC(N(C)CC)C3)nc3c(F)c(-c4c(O)cccc4F)c(Cl)cc23)C[C@H]1C` (atropisomer, axis not shown) [Compound 155, 1-((2R,5S)-4-(6-chloro-2-(3-(ethyl(methyl)amino)azetidin-1-yl)-8-fluoro-7-((R)-2-fluoro-6-hydroxyphenyl)quinazolin-4-yl)-2,5-dimethyl-piperazin-1-yl) prop-2-en-1-one]: “+ (+ indicates binding activity greater than 0% and up to 50%)”; `C=CC(=O)N1C[C@H](C)N(c2nc(N3CC(N(C)CC)C3)nc3c(F)c(-c4c(O)cccc4F)c(Cl)cc23)C[C@H]1C` [Compound 98, 1-((2R,5S)-4-(6-chloro-2-(3-(ethyl(methyl)amino)azetidin-1-yl)-8-fluoro-7-(2-fluoro-6-hydroxyphenyl)quinazolin-4-yl)-2,5-dimethyl-piperazin-1-yl) prop-2-en-1-one]: “++ (++ indicates binding activity from 50 to 90%)”.
Still for that read-out and setting: in the case of `C=CC(=O)N1C[C@@H](C)N(c2nc(N3CC(N(C)C)C3)nc3c(F)c(-c4c(O)cccc4F)c(Cl)cc23)C[C@H]1C` [Compound 86, 1-((2R,5R)-4-(6-chloro-2-(3-(dimethylamino)azetidin-1-yl)-8-fluoro-7-(2-fluoro-6-hydroxyphenyl)quinazolin-4-yl)-2,5-dimethyl-piperazin-1-yl) prop-2-en-1-one] it was “+ (+ indicates binding activity greater than 0% and up to 50%)”; in that of `C=CC(=O)N1C[C@H](C)N(c2nc(N3CC(C)(N(C)C)C3)nc3c(F)c(-c4c(C)ccc5cn[nH]c45)c(Cl)cc23)C[C@H]1C` [Compound 124, 1-((2R,5S)-4-(6-chloro-2-(3-(dimethylamino)-3-methylazetidin-1-yl)-8-fluoro-7-(6-methyl-1H-indazol-7-yl)quinazolin-4-yl)-2,5-dimethyl-piperazin-1-yl) prop-2-en-1-one], “++ (++ indicates binding activity from 50 to 90%)”.
Take `C=CC(=O)N1C[C@H](C)N(c2nc(N3CC(N(C)C)C3)nc3c(F)c(-c4cc(O)cc5ccccc45)c(C(F)(F)F)cc23)C[C@H]1C` [Compound 178, 1-((2R,5S)-4-(2-(3-(dimethylamino)azetidin-1-yl)-8-fluoro-7-(3-hydroxynaphthalen-1-yl)-6-(trifluoromethyl)quinazolin-4-yl)-2,5-dimethyl-piperazin-1-yl) prop-2-en-1-one]: the Binding % entry is “+++ (+++ indicates binding activity greater than 90%)”.
The same measure, in the same setting: next, `C=CC(=O)N1C[C@H](C)N(c2nc(NC3CCN(C4CC4)CC3)nc3c(F)c(-c4c(C)ccc5cn[nH]c45)c(Cl)cc23)C[C@H]1C` [Compound 145, 1-((2R,5S)-4-(6-chloro-2-((1-cyclopropyl-piperidin-4-yl)amino)-8-fluoro-7-(6-methyl-1H-indazol-7-yl)quinazolin-4-yl)-2,5-dimethyl-piperazin-1-yl) prop-2-en-1-one]: “++ (++ indicates binding activity from 50 to 90%)”; `C=CC(=O)N1C[C@H](C)N(c2nc(N3CC(N)C3)nc3c(F)c(-c4c(C)ccc5cn[nH]c45)c(Cl)cc23)C[C@H]1C` [Compound 97, 1-((2R,5S)-4-(2-(3-aminoazetidin-1-yl)-6-chloro-8-fluoro-7-(6-methyl-1H-indazol-7-yl)quinazolin-4-yl)-2,5-dimethyl-piperazin-1-yl) prop-2-en-1-one]: “++ (++ indicates binding activity from 50 to 90%)”; `C=CC(=O)N1C[C@H](C)N(c2nc(N3CC(N(C)C(C)C)C3)nc3c(F)c(-c4c(C)ccc5[nH]ncc45)c(Cl)cc23)C[C@H]1C` [Compound 123, 1-((2R,5S)-4-(6-chloro-8-fluoro-2-(3-(isopropyl (methyl)amino)azetidin-1-yl)-7-(5-methyl-1H-indazol-4-yl)quinazolin-4-yl)-2,5-dimethyl-piperazin-1-yl) prop-2-en-1-one]: “+ (+ indicates binding activity greater than 0% and up to 50%)”.
As to `C=CC(=O)N1CCN(c2nc(CN(C)Cc3ncccn3)nc3c(F)c(-c4c(O)cccc4F)c(Cl)cc23)C[C@H]1C` [Compound 91, 1-((2R)-4-(6-chloro-8-fluoro-7-(2-fluoro-6-hydroxyphenyl)-2-((methyl (pyrimidin-2-yl-methyl)amino)methyl)quinazolin-4-yl)-2-methyl-piperazin-1-yl) prop-2-en-1-one], the Binding % entry was “+ (+ indicates binding activity greater than 0% and up to 50%)”.
Consider `C=CC(=O)N1CCN(c2nc(N3CC(C)(N(C)C)C3)nc3c(F)c(-c4c(C)ccc5[nH]ncc45)c(Cl)cc23)C[C@H]1C` [Compound 171, 1-((2R)-4-(6-chloro-2-(3-(dimethylamino)-3-methylazetidin-1-yl)-8-fluoro-7-(5-methyl-1H-indazol-4-yl)quinazolin-4-yl)-2-methyl-piperazin-1-yl) prop-2-en-1-one], for which the Binding % entry was “++ (++ indicates binding activity from 50 to 90%)”.
On to `C=CC(=O)N1C[C@H](C)N(c2nc(N3CC(N(CC)CC)C3)nc3c(F)c(-c4c(C)ccc5[nH]ncc45)c(Cl)cc23)C[C@H]1C` (atropisomer, axis not shown) [Compound 152, 1-((2R,5S)-4-(6-chloro-2-(3-(diethylamino)azetidin-1-yl)-8-fluoro-7-((S)-5-methyl-1H-indazol-4-yl)quinazolin-4-yl)-2,5-dimethyl-piperazin-1-yl) prop-2-en-1-one], for which the Binding % result was “+ (+ indicates binding activity greater than 0% and up to 50%)”.
For the compound `C=CC(=O)N1C[C@H](C)N(c2nc(OCCCN(CC)CC)nc3c(F)c(-c4c(O)cccc4F)c(Cl)cc23)C[C@H]1C` [Compound 158, 1-((2R,5S)-4-(6-chloro-2-(3-(diethylamino)propoxy)-8-fluoro-7-(2-fluoro-6-hydroxyphenyl)quinazolin-4-yl)-2,5-dimethyl-piperazin-1-yl) prop-2-en-1-one], the Binding % result is “+++ (+++ indicates binding activity greater than 90%)”.
As for `C=CC(=O)N1C[C@H](C)N(c2nc(N3CC(N(C)C)C3)nc3c(F)c(-c4c(O)cccc4F)c(C(F)(F)F)cc23)C[C@H]1C` [Compound 206, 1-((2R,5S)-4-(2-(3-(dimethylamino)azetidin-1-yl)-8-fluoro-7-(2-fluoro-6-hydroxyphenyl)-6-(trifluoromethyl)quinazolin-4-yl)-2,5-dimethyl-piperazin-1-yl) prop-2-en-1-one], the Binding % entry is listed as “+++ (+++ indicates binding activity greater than 90%)”.
Still for that read-out and setting: next, `C=CC(=O)N1C[C@H](C)N(c2nc(Oc3cn[nH]c3)nc3c(F)c(-c4c(O)cccc4F)c(Cl)cc23)C[C@H]1C` [Compound 222, 1-((2R,5S)-4-(2-(1H-pyrazol-4-yloxy)-6-chloro-8-fluoro-7-(2-fluoro-6-hydroxy-phenyl)quinazolin-4-yl)-2,5-dimethyl-piperazin-1-yl) prop-2-en-1-one]: “++ (++ indicates binding activity from 50 to 90%)”.
For `C=CC(=O)N1C[C@H](C)N(c2nc(N3CC4(CCN4C)C3)nc3c(F)c(-c4c(C)ccc5[nH]ncc45)c(Cl)cc23)C[C@H]1C` [Compound 170, 1-((2R,5S)-4-(6-chloro-8-fluoro-7-(5-methyl-1H-indazol-4-yl)-2-(1-methyl-1,6-diazaspiro[3.3]heptan-6-yl)quinazolin-4-yl)-2,5-dimethyl-piperazin-1-yl) prop-2-en-1-one], the Binding % result is “+ (+ indicates binding activity greater than 0% and up to 50%)”.
